Source: EP0627929B1, “INHIBITORS OF THROMBOSIS” (CORVAS INTERNATIONAL, INC., priority 1992, dated 1993)
pIC50: −log10 of the molar value. Like-named read-outs stand apart in the source and are kept apart here. Peptide text beside a SMILES is read from it. * marks the point of attachment. Hydrocinnamoyl = O=C(CCc1ccccc1)*

Experiments:
Human factor Xa = target: T1, Human factor Xa (Homo sapiens, UniProt P00742); assay: Factor Xa assay: inhibition of chromogenic substrate (S2765) hydrolysis; assay type: biochemical; details: human factor Xa 0.5 nM, substrate 250 µM, 30 minute incubation, HBSA pH 7.5
T1 construct: Human factor Xa was prepared from purified human factor X obtained from Enzyme Research Laboratories; purchased Enzyme Research Laboratories
T1 sequence (P00742 235-488 limits assumed): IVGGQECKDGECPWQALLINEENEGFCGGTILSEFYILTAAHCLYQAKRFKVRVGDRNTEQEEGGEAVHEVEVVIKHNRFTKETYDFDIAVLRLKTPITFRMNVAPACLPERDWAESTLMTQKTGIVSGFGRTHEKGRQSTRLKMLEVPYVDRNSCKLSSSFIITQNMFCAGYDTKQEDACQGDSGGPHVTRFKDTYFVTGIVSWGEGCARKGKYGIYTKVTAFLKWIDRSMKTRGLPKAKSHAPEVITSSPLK
T1 sequence (P00742 41-179 partner limits assumed): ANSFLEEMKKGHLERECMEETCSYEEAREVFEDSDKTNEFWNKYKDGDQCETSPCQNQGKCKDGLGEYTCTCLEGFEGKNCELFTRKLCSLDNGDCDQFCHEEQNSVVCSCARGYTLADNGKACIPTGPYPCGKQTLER
Description: In the assays for thrombin, factor Xa and plasmin, a chromogenic synthetic substrate is added to a solution containing test compound and the enzyme of interest and the residual catalytic activity of that enzyme is determined spectrophometrically. The IC50 of compound is determined from the substrate turnover. […] The buffer used for all assays was HBSA (10 mM HEPES, pH 7.5, 150 mM sodium chloride, 0.1% bovine serum albumin). […] Following a 30 minute incubation at ambient temperature, 50 μL of the substrate at the concentrations specified below, was added to the wells yielding a final total volume of 200 μL. […] Factor Xa catalytic activity was determined using the substrate, S2765 (N-α-benzyloxycarbonyl-[…]-nitroanilide dihydrochloride) which was obtained from Kabi Diagnostica. […] Human factor Xa was prepared from purified human factor X obtained from Enzyme Research Laboratories according to the method described by Bock, P.E. et al., Archives of Biochem. Biophys. […] The enzyme was diluted into HBSA prior to the assay in which the final concentration was 0.5 nM.

human α-thrombin = human α-thrombin (Homo sapiens, UniProt P00734); assay: Thrombin assay: inhibition of chromogenic substrate (Pefachrome t-PA) hydrolysis; assay type: biochemical; details: purified human α-thrombin 0.25 nM, substrate 300 µM, 30 minute incubation, HBSA pH 7.5
Description: (§1) In the assays for thrombin, factor Xa and plasmin, a chromogenic synthetic substrate is added to a solution containing test compound and the enzyme of interest and the residual catalytic activity of that enzyme is determined spectrophometrically. The IC50 of compound is determined from the substrate turnover. […] The buffer used for all assays was HBSA (10 mM HEPES, pH 7.5, 150 mM sodium chloride, 0.1% bovine serum albumin). […] Following a 30 minute incubation at ambient temperature, 50 µL of the substrate at the concentrations specified below, was added to the wells yielding a final total volume of 200 µL.

human plasmin = human plasmin (Homo sapiens, UniProt P00747); assay: Plasmin assay: inhibition of chromogenic substrate (S-2251) hydrolysis; assay type: biochemical; details: purified human plasmin 1.0 nM, substrate 300 µM, 30 minute incubation, HBSA pH 7.5
Chain of human plasmin (P00747 581-810 limits assumed): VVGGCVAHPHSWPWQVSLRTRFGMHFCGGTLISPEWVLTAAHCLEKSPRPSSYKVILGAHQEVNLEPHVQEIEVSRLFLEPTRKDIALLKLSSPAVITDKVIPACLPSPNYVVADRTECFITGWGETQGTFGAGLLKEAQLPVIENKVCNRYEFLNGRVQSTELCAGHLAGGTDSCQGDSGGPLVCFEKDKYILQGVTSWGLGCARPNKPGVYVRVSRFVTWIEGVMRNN
Chain of human plasmin (P00747 97-580 partner limits assumed): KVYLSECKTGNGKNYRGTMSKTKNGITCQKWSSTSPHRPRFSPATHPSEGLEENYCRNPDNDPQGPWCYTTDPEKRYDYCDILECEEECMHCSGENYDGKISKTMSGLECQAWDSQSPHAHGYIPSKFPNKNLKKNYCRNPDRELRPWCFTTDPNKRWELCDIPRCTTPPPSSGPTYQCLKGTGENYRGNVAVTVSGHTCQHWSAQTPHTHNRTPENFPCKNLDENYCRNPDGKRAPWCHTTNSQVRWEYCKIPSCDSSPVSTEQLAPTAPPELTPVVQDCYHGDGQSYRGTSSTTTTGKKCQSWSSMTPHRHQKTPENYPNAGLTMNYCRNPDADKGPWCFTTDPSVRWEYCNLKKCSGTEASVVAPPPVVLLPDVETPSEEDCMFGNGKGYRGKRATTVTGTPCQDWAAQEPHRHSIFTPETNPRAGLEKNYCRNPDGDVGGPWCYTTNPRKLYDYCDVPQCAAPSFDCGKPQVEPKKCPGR
Description: as §1, with “μL” for “µL”, “μL. […] Plasmin catalytic activity was determined using the chromogenic substrate, […] dihydrochloride], which was obtained from Kabi Diagnostica.” for “µL.”

[1] = system: FeCl3-induced platelet-dependent arterial thrombosis; details: rat, [Isolated clot/(Intact segment-Empty segment)] X 100, mean ± S.E.M., control 68.65±3.75

Compound	pIC50 (Human factor Xa)	pIC50 (human α-thrombin)	pIC50 (human plasmin)	Clot Size ([1]; Group1: 25µg/kg/min i.v. infusion)	Clot Size ([1]; Group2: 50µg/kg/min i.v. infusion, p<0.01 vs Control)	Clot Size ([1]; Group3: 100µg/kg/min i.v. infusion, p<0.01 vs Control)
CCCC(CCC)C(=O)N[C@@H](CC(=O)OC)C(=O)N1CCC[C@H]1C(=O)N[C@H](C=O)CCCNC(=N)N [2PrPent-Asp(OCH3)-Pro-Arg-al]	6.53	–	6.49	–	–	–
COC(=O)C[C@H](NC(=O)CCc1ccccc1)C(=O)N1CCC[C@H]1C(=O)N[C@H](C=O)CCCNC(=N)N [HCA-Asp(OCH3)-Pro-Arg-al, N-(3-phenylpropanoyl)-L-aspartyl-β-(methyl ester)-L-prolyl-L-argininal] (Hydrocinnamoyl-Asp(OMe)-Pro-Arg-aldehyde)	6.67	7.36	6.26	–	–	–
N-(3-phenylpropanyl)-L-aspartyl-L-prolyl-L-argininal [HCA-Asp-Pro-Arg-al]	7.04	6.63	6.49	48.38±24.71%	22.38±21.0 %	3.38±5.44 %
N-Boc-D-phenylalanyl-L-aspartyl-L-prolyl-L-argininal [Boc-(D-Phe)-Pro-Arg-al, reference compound]	–	8.34	6.00	–	–	–

More lines, in order of rising pIC50 (Human factor Xa), values ahead:

pIC50 (Human factor Xa)	pIC50 (human α-thrombin)	pIC50 (human plasmin)	Compound	Clot Size ([1]; Group1: 25µg/kg/min i.v. infusion)	Clot Size ([1]; Group2: 50µg/kg/min i.v. infusion, p<0.01 vs Control)	Clot Size ([1]; Group3: 100µg/kg/min i.v. infusion, p<0.01 vs Control)
6.76	8.07	6.55	CCCC(CCC)C(=O)N[C@@H](CC(=O)O)C(=O)N1CCC[C@H]1C(=O)N[C@H](C=O)CCCNC(=N)N [2PrPent-Asp-Pro-Arg-al, N-(2-propylpentanoyl)-L-aspartyl-L-prolyl-L-argininal]	–	–	–
6.89	7.27	6.85	N=C(N)NCCC[C@@H](C=O)NC(=O)[C@@H]1CCCN1C(=O)[C@H](CC(=O)O)NC(=O)CC1CCCCC1 [ChxAc-Asp-Pro-Arg-al, N-(1-cyclohexylacetyl)-L-aspartyl-L-prolyl-L-argininal]	–	–	–
7.19	7.06	6.30	3-tetrazolyl-2-(4-methylvaleroylamido) propionoyl-L-prolyl-L-argininal [4MeV-Ala(Tzl)-Pro-Arg-al]	–	–	–
7.24	6.83	6.07	CC(C)CCC(=O)N[C@@H](CC(=O)O)C(=O)N1CCC[C@H]1C(=O)N[C@H](C=O)CCCNC(=N)N [4MeV-Asp-Pro-Arg-al, N-(4-methylpentanoyl)-L-aspartyl-L-prolyl-L-argininal]	–	–	–
7.51	7.28	6.08	N=C(N)NCCC[C@@H](C=O)NC(=O)[C@@H]1CCCN1C(=O)[C@H](CC(=O)O)NC(=O)CCC1CCCCC1 [ChxPA-Asp-Pro-Arg-al, N-(3-cyclohexanepropionyl)-L-aspartyl-L-prolyl-L-argininal]	–	–	–
